The target of test [1] is T1, recombinant human NK3 receptor (Homo sapiens, UniProt P29371).
T1 construct: expressed in transfected cells; host or cells: HEK293 cells, transient expression; membranes
T1 sequence (P29371 1-465): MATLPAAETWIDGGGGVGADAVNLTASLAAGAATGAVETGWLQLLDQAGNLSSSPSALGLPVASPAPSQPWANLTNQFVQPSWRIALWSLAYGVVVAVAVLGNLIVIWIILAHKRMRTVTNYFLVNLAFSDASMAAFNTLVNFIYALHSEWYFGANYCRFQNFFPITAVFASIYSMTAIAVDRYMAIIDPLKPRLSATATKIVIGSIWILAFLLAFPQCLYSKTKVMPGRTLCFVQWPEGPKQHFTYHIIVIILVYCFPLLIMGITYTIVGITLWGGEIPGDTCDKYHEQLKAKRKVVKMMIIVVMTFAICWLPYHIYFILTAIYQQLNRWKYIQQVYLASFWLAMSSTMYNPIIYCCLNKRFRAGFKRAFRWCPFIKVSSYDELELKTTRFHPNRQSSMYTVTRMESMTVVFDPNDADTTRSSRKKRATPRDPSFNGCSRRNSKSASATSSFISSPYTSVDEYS
In words: [3H]SR142801 competition binding assay. Conditions: membranes from HEK293 cells transiently expressing recombinant human NK3 receptor; [3H]SR142801 radioligand; Ki by Cheng-Prussoff. On the procedure:
[^3H]SR142801 Competition Binding Assay
hNK3 receptor binding experiment were performed using [^3H]SR142801 (Catalog No. TRK1035, specific activity: 74.0 Ci/mmol, Amersham, GE Healthcare UK limited, Buckinghamshire, UK) and membrane isolated from HEK293 cells transiently expressing recombinant human NK3 receptor. After thawing, the membrane homogenates were centrifuged at 48,000×g for 10 min at 4° C., the pellets were resuspended in the 50 mM Tris-HCl, 4 mM MnCl2, 1 μM phosphoramidon, 0.1% BSA binding buffer at pH 7.4 to a final assay concentration of 5 μg protein/well. For inhibition experiments, membranes were incubated with [^3H]SR142801 at a concentration equal to KD value of radioligand and 10 concentrations of the inhibitory compound (0.0003-10 μM) (in a total reaction volume of 500 μl) for 75 min at room temperature (RT). At the end of the incubation, membranes were filtered onto unit filter (96-well white microplate with bonded GF/C filter preincubated 1 h in 0.3% PEI+0.3% BSA, Packard BioScience, Meriden, Conn.) with a Filtermate 196 harvester (Packard BioScience) and washed 4 times with ice-cold 50 mM Tris-HCl, pH 7.4 buffer. Nonspecific binding was measured in the presence of 10 μM SB222200 for both radioligands. The radioactivity on the filter was counted (5 min) on a Packard Top-count microplate scintillation counter with quenching correction after addition of 45 μl of microscint 40 (Canberra Packard S. A., Zürich, Switzerland) and shaking for 1 h. Inhibition curves were fitted according to the Hill equation: y=100/(1+(x/IC50)^nH), where nH=slope factor using Excel-fit 4 software (Microsoft). IC50 values were derived from the inhibition curve and the affinity constant (Ki) values were calculated using the Cheng-Prussoff equation Ki=IC50/(1+[L]/KD) where [L] is the concentration of radioligand and KD is its dissociation constant at the receptor, derived from the saturation isotherm. All experiments were performed in duplicate and the mean±standard error (SEM) of the individual Ki values was calculated.

For test [2] the following is noted: phase II trial, cited from earlier work.

What is called Ki is the dissociation constant of the complex between target and ligand, obtained from inhibition or displacement.

Regarding `C[C@@H](Oc1ccc(Cl)cn1)[C@@H]1CN(C(=O)CN2CC3CC2CO3)C[C@H]1c1ccc(Cl)c(Cl)c1` (stereo partly drawn) [Example 68, 1-[(3S,4R)-3-[(R)-1-(5-Chloro-pyridin-2-yloxy)-ethyl]-4-(3,4-dichloro-phenyl)-pyrrolidin-1-yl]-2-(2-oxa-5-aza-bicyclo[2.2.1]hept-5-yl)-ethanone], the Ki in test [1] was 27 nM.
In the case of `CC(=O)N(C)C1(c2ccccc2)CCN(CCC[C@]2(c3ccc(Cl)c(Cl)c3)CCCN(C(=O)c3ccccc3)C2)CC1` [SR 142,801, Osanetant], in test [2] (altered behaviour, delusion, hallucinations, extreme emotions, excited motor activity, incoherent speech), the “activity on positive symptoms of schizophrenia” value was “active”. For the same compound, the “activity in the treatment of negative symptoms of schizophrenia” value in test [2] (depression, anhedonia, social isolation, memory and attention deficits) is “inactive”.
Consider “N-(1-{2-[(3SR,4RS)-[3-(RS)-1-(4-Chloro-phenoxy)-ethyl]-4-(3,4-dichloro-phenyl)-pyrrolidin-1-yl]-2-oxo-ethyl}-piperidin-4-yl)-N-methyl-acetamide [Example 65]”, for which the inhibition constant (Ki) in test [1] worked out at 20 nM.

The values are drawn from patent US7812021B2, “Pyrrolidine aryl-ether as NK3 receptor antagonists” (Hoffmann-La Roche Inc., priority 2007, dated 2010).
